≈ marks a conversion by molar mass, not a printed value.
Assays:
Trichophyton rubrum = assay: Antifungal activity against Trichophyton rubrum Cmccftla after 24 hrs to 1 week; format: functional
Cryptococcus neoformans = assay: Antifungal activity against Cryptococcus neoformans ATCC 32609 after 24 hrs to 1 week; format: functional
Nakaseomyces glabratus = assay: Antifungal activity against Candida glabrata ATCC 537 after 24 hrs to 1 week; format: functional
HL-60 = assay: Cytotoxicity against human HL60 cells by MTT assay; format: cell-based
Aspergillus fumigatus = assay: Antifungal activity against Aspergillus fumigatus ATCC 07544 after 24 hrs to 1 week; format: functional
A549 = assay: Cytotoxicity against human A549 cells by MTT assay; format: cell-based

MIC80 (Trichophyton rubrum)	MIC80 (Cryptococcus neoformans)	MIC80 (Nakaseomyces glabratus)	MIC80 (Aspergillus fumigatus)	SMILES	IC50 (HL-60)	IC50 (A549)
1 µg/mL (≈ 1.08 µM)	4 µg/mL (≈ 4.33 µM)	2 µg/mL (≈ 2.16 µM)	–	C[C@@H]1[C@H](O)[C@@H](C)/C=C/C=C/C=C/C=C/C=C/C=C/C=C/[C@H](O[C@@H]2O[C@H](C)[C@@H](O)[C@H](N)[C@@H]2O)C[C@@H]2O[C@](O)(C[C@@H](O)C[C@@H](O)[C@H](O)CC[C@@H](O)C[C@@H](O)CC(=O)O[C@H]1C)C[C@H](O)[C@H]2C(=O)O [AMPHOTERICIN B]	–	–
–	–	–	–	COc1cccc2c1C(=O)c1c(O)c3c(c(O)c1C2=O)C[C@@](O)(C(=O)CO)C[C@@H]3O[C@H]1C[C@H](N)[C@H](O)[C@H](C)O1 [DOXORUBICIN]	0.12 µM	–
16 µg/mL (≈ 58.3 µM)	4 µg/mL (≈ 14.6 µM)	4 µg/mL (≈ 14.6 µM)	≥ 64 µg/mL	CC(C)=C[C@H]1c2c(C)ccc(C)c2[C@@H](O)[C@@H]1C(C)(C)O (relative stereo)	≥ 100 µM	≥ 100 µM
64 µg/mL (≈ 233 µM)	64 µg/mL (≈ 233 µM)	64 µg/mL (≈ 233 µM)	≥ 64 µg/mL	Cc1ccc(C)c(/C=C/C(C)(C)O)c1/C=C/C(C)(C)O	≥ 100 µM	≥ 100 µM
